Results from patent publication US6642392B1 (priority 1997, dated 2003).
Read-outs that look alike come from different tables or passages of the source.

Legend:
Format in all cases: in vivo
[1] = system: Eiysiphe graminis f. sp. tritici; experiment: Test A: wheat powdery mildew, preventive spray on wheat seedlings; conditions: for Test A disease control rating: wheat powdery mildew; for Test A disease control rating (100 = 100% disease control, 0 = no disease control): wheat seedlings sprayed to run-off, inoculated the following day, rating relative to controls, unmarked compounds (standard test rate)
Summary of the method: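 Preventive test: seedlings inoculated with powdery mildew spores one day after run-off spraying of a suspension. Ratings after 7 days in a 20° C growth chamber express percent disease control versus controls.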

[2] = system: Puccinia recondita; experiment: Test B: wheat leaf rust, preventive spray on wheat seedlings; conditions: for Test B disease control rating: wheat leaf rust; for Test B disease control rating (100 = 100% disease control, 0 = no disease control): wheat seedlings sprayed to run-off, inoculated the following day, rating relative to controls, unmarked compounds (standard test rate)
Summary of the method: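 Preventive test: P. recondita spores were applied one day after a run-off spray of compound suspension on wheat seedlings. Plants had 24 h at 20 °C in saturated air plus 6 days in a 20 °C growth chamber. Scoring is % disease control (100 = full) relative to controls.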

[3] = system: Pyricularia oryzae; conditions: for Test C disease control rating: rice blast; for Test C disease control rating (100 = 100% disease control, 0 = no disease control): rice seedlings sprayed to run-off, inoculated the following day, rating relative to controls, unmarked compounds (standard test rate)
[4] = system: Phytophthora infestans; conditions: for Test D disease control rating: tomato late blight; for Test D disease control rating (100 = 100% disease control, 0 = no disease control): tomato seedlings sprayed to run-off, inoculated the following day, rating relative to controls, unmarked compounds (standard test rate)
[5] = system: Botrytis cinerea; experiment: Test E: gray mold, preventive spray on cucumber seedlings; conditions: for Test E disease control rating: gray mold on cucumber; for Test E disease control rating (100 = 100% disease control, 0 = no disease control): cucumber seedlings sprayed to run-off, inoculated the following day, rating relative to controls, unmarked compounds (standard test rate)
Summary of the method: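 Preventive spray on cucumber seedlings used a suspension (3% acetone, 250 ppm Trem 014), applied to run-off one day before inoculation with Botrytis cinerea spores. Plants were held 48 h at 20° C in saturated air, then 5 days at 20° C. Percent disease control was scored relative to untreated plants.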

[6] = 100 = 100% disease control, 0 = no control relative to controls, unmarked entries (standard test concentration)
[7] = 100 = 100% disease control, 0 = no control, unmarked entries (standard test concentration)

| Structure (SMILES) | Test A disease control rating [1, 6] [%] | Test B disease control rating [2, 7] [%] | Test C disease control rating [3, 7] [%] | Test D disease control rating [4, 7] [%] | Test E disease control rating [5, 7] [%] | other results |
| --- | --- | --- | --- | --- | --- | --- |
| C[C@H](COc1cc(F)ccc1Br)NC(=O)C(C#N)C(C)(C)C (single isomer, unassigned) [166b] | 0 | 0 | 99 | 0 | 0 | – |
| CCC1(C(=O)NC(C)COc2c(Cl)ccc(Cl)c2Cl)C(C)C1(Cl)Cl (stereo not shown) [compound 117] | – | – | – | – | – | Test A disease control rating ([1]; tested at 40 ppm): 83%; Test B disease control rating ([2]; tested at 40 ppm): 0%; Test C disease control rating ([3]; tested at 40 ppm): 74%; Test D disease control rating ([4]; tested at 40 ppm): 0%; Test E disease control rating ([5]; tested at 40 ppm): 0% |
| C=CC(C)(C)C(C#N)C(=O)N[C@H](C)COc1cc(F)ccc1Cl (single isomer, unassigned) [192a] | 0 | 0 | 100 | 0 | 85 | – |
| CC(COc1cccc(C(F)(F)F)c1C#N)NC(=O)C(C#N)C(C)(C)C (mixture of isomers) [compound 47] | 0 | 0 | 53 | 52 | 0 | – |
| CCCc1cccc(C#N)c1OCC(C)NC(=O)C1(CC)C(C)C1(Cl)Cl (mixture of isomers) [compound 255] | – | – | – | – | – | Test A disease control rating (100 = 100% disease control, 0 = no disease control) [1]: 28%; Test B disease control rating (100 = 100% disease control, 0 = no disease control) [2]: 0%; Test C disease control rating (100 = 100% disease control, 0 = no disease control) [3]: 74%; Test D disease control rating (100 = 100% disease control, 0 = no disease control) [4]: 0%; Test E disease control rating (100 = 100% disease control, 0 = no disease control) [5]: 0% |
| CC(COn1c(C#N)cc(Cl)c1Cl)NC(=O)C(C#N)C(C)(C)C (mixture of isomers) [compound 51] | 71 | 0 | 53 | 68 | 0 | – |
| CCC1(C(=O)NC(C)COc2ccc(Br)cc2F)C(C)C1(Cl)Cl (mixture of isomers) [compound 122] | 0 | 0 | 0 | 0 | 0 | – |
| CCc1cccc(OCC(C)NC(=O)C(C#N)C(C)(C)C)c1 (mixture of isomers) [compound 177] | 62 | 0 | 94 | 35 | 6 | – |
| C[C@H](COc1cccc(I)c1)NC(=O)C(C#N)C(C)(C)C (single isomer, unassigned) [12b] | 77 | 0 | 94 | 68 | 0 | – |
| CCc1ccccc1OCC(C)NC(=O)C(C#N)C(C)(C)C (mixture of isomers) [20b] | 0 | 0 | 100 | 0 | 0 | – |
| CC(COc1ccc(Br)cc1)NC(=O)C(C#N)C(C)(C)C (single isomer, unassigned) [10b] | 62 | 67 | 86 | 95 | 0 | – |
| CC(COc1cccc(Cl)c1C#N)NC(=O)C(C#N)C(C)C(C)(C)C (mixture of isomers) [compound 64] | 0 | 0 | 53 | 2 | 0 | – |
| C[C@H](COc1cccc(Cl)c1Cl)NC(=O)C(C#N)C(C)(C)C (single isomer, unassigned) [31a] | 62 | 68 | 74 | 51 | 0 | – |
| C[C@H](COc1ccc(F)cc1F)NC(=O)C(C#N)C(C)(C)C (single isomer, unassigned) [27b] | 91 | 0 | 100 | 0 | 0 | – |
| CC(COc1ccccc1OC(F)(F)C(F)F)NC(=O)C(C#N)C(C)(C)C (mixture of isomers) [compound 201] | 90 | 0 | 53 | 46 | 0 | – |
| C[C@H](COc1ccc(F)c(F)c1F)NC(=O)C(C#N)C(C)(C)C (single isomer, unassigned) [190b] | 0 | 0 | 94 | 0 | 0 | – |
| CC(COc1cccc(Cl)c1)NC(=O)C(C#N)C(C)(C)C (mixture of isomers) [6b] | 38 | 68 | 53 | 4 | 0 | – |
| CCC(=CCNC(=O)C1(CC)C(C)C1(Cl)Cl)c1ccccc1 (stereo not shown) [compound 269] | – | – | – | – | – | Test A disease control rating (100 = 100% disease control, 0 = no disease control) [1]: 98%; Test B disease control rating (100 = 100% disease control, 0 = no disease control) [2]: 0%; Test C disease control rating (100 = 100% disease control, 0 = no disease control) [3]: 94%; Test D disease control rating (100 = 100% disease control, 0 = no disease control) [4]: 74%; Test E disease control rating (100 = 100% disease control, 0 = no disease control) [5]: 0% |
| C[C@H](COc1ccc(F)cc1F)NC(=O)C(C#N)C(C)(C)C (single isomer, unassigned) [27a] | 38 | 0 | 100 | 81 | 0 | – |
| CCC1(C(=O)NC(C)COc2cc(F)cc(F)c2)C(C)C1(Cl)Cl (stereo not shown) [compound 234] | – | – | – | – | – | Test A disease control rating (100 = 100% disease control, 0 = no disease control) [1]: 0%; Test B disease control rating (100 = 100% disease control, 0 = no disease control) [2]: 0%; Test C disease control rating (100 = 100% disease control, 0 = no disease control) [3]: 100%; Test D disease control rating (100 = 100% disease control, 0 = no disease control) [4]: 0%; Test E disease control rating (100 = 100% disease control, 0 = no disease control) [5]: 0% |
| CCC1(C(=O)NC(C)COc2ccccc2Cl)C(C)C1(Cl)Cl (mixture of isomers) [81a] | 0 | 0 | 0 | 0 | 55 | – |
| CCCc1ccccc1OCC(C)NC(=O)C1(CC)C(C)C1(Cl)Cl (stereo not shown) [98b] | – | – | – | – | – | Test A disease control rating ([1]; tested at 40 ppm): 52%; Test B disease control rating ([2]; tested at 40 ppm): 0%; Test C disease control rating ([3]; tested at 40 ppm): 74%; Test D disease control rating ([4]; tested at 40 ppm): 0%; Test E disease control rating ([5]; tested at 40 ppm): 0% |
| CCC1(C(=O)NC(C)COn2c(C#N)cc(Cl)c2Cl)C(C)C1(Cl)Cl (mixture of isomers) [compound 139] | 71 | 0 | 91 | 0 | 0 | – |
